# Assay results from ChEMBL document CHEMBL1201862, “PubChem BioAssay data set” (2004).
#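 Where inhibition never reached the appropriate level, the endpoint shown equals the highest concentration tested. Otherwise, values were interpolated linearly from a five-concentration, 48-hour dose response in 96-well plates. GI50: concentration for 50% inhibition of growth.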 Active and inactive are the calls of the source. Rule as the data show it: active = GI50 up to about 1.1 µM and inactive = higher. Where a SMILES comes first, the peptide text is derived from it. The star is where a group is joined. Boc = CC(C)(C)OC(=O)*
# Legend:
# Test in all cases: NCI-60 cell line screen, 48 h
# [1] = tested on: RPMI-8226
# [2] = tested on: DU-145
# [3] = tested on: SK-MEL-5
# [4] = tested on: 786-0
# [5] = tested on: UACC-62
# [6] = tested on: SW-620
# [7] = tested on: NCI-H226
# [8] = tested on: NCI-H460
# [9] = tested on: COLO 205
# [10] = tested on: NCI-H522
# [11] = tested on: SF-295
# [12] = tested on: OVCAR-4
# [13] = tested on: SNB-75
# [14] = tested on: HCC 2998
# [15] = tested on: SK-OV-3
# [16] = tested on: MOLT-4
# [17] = tested on: HOP-62
# [18] = tested on: NCI-H23
# [19] = tested on: MDA-N
# [20] = tested on: HOP-92
SMILES,GI50 [1],GI50 [2],GI50 [3],GI50 [4],GI50 [5],GI50 [6],GI50 [7],GI50 [8],GI50 [9],GI50 [10],GI50 [11],GI50 [12],GI50 [13],GI50 [14],GI50 [15],GI50 [16],GI50 [17],GI50 [18],GI50 [19],GI50 [20]
Nc1c2c(nc3ccccc13)CCCc1ccccc1-2,5.32 µM (inactive),21.5 µM (inactive),8.45 µM (inactive),11.3 µM (inactive),6.7 µM (inactive),5.94 µM (inactive),15.9 µM (inactive),2.81 µM (inactive),8.32 µM (inactive),17.3 µM (inactive),7.23 µM (inactive),20.1 µM (inactive),13.5 µM (inactive),1.83 µM (inactive),33.5 µM (inactive),16.6 µM (inactive),12.4 µM (inactive),16.3 µM (inactive),4.17 µM (inactive),10.1 µM (inactive)
CC1=C(/C=C/C(C)=C/C=C/C(C)=C/C(=O)OCC2OC(n3cc(F)c(=O)[nH]c3=O)CC2OC(=O)/C=C(C)/C=C/C=C(C)/C=C/C2=C(C)CCCC2(C)C)C(C)(C)CCC1 (stereo not given),0.796 µM (active),1.27 µM (inactive),3.08 µM (inactive),1.15 µM (inactive),0.83 µM (active),12.1 µM (inactive),37.8 µM (inactive),0.0659 µM (active),18.7 µM (inactive),8.2 µM (inactive),0.301 µM (active),> 32.1 µM (inactive),10.4 µM (inactive),0.132 µM (active),30.5 µM (inactive),1.07 µM (active),0.306 µM (active),10.4 µM (inactive),10.4 µM (inactive),1.25 µM (inactive)
O=C1C=CC(=O)C(CNc2ccc(C(=O)OCc3ccccc3)cc2)=C1,1.47 µM (inactive),12.2 µM (inactive),3.19 µM (inactive),3.33 µM (inactive),8.97 µM (inactive),4.99 µM (inactive),12.3 µM (inactive),16.9 µM (inactive),1.86 µM (inactive),1.39 µM (inactive),17.7 µM (inactive),3.81 µM (inactive),5.25 µM (inactive),16 µM (inactive),12.6 µM (inactive),2 µM (inactive),17.3 µM (inactive),10.2 µM (inactive),6.85 µM (inactive),1.76 µM (inactive)
COC(=O)C(C)NC(=O)C(CCSC)NC(=O)C(Cc1ccccc1)NC(=O)OC(C)(C)C (stereo not drawn) (Boc-Phe-Met-Ala-OMe; configuration not given here),> 100 µM (inactive),> 100 µM (inactive),> 100 µM (inactive),> 100 µM (inactive),> 100 µM (inactive),> 100 µM (inactive),> 100 µM (inactive),> 100 µM (inactive),> 100 µM (inactive),> 100 µM (inactive),> 100 µM (inactive),> 100 µM (inactive),> 100 µM (inactive),> 100 µM (inactive),> 100 µM (inactive),> 100 µM (inactive),> 100 µM (inactive),> 100 µM (inactive),> 100 µM (inactive),> 100 µM (inactive)
